Data on seven molecules can be found in ChEMBL document CHEMBL1139855, “Molecular recognition of DNA by rigid [N]-polynorbornane-derived bifunctional intercalators: synthesis and evaluation of their binding properties” (J Med Chem, 2007).

Assay [1] is described as follows: Binding affinity at poly (dGdC). poly (dGdC) dsDNA polynucleotide by competition dialysis assay.
The subject of a further assay is Escherichia coli. Description: Binding affinity at Escherichia coli double stranded DNA by competition dialysis assay.
A short description of assay [2]: Binding affinity at poly (dAdT). poly (dAdT) dsDNA polynucleotide by competition dialysis assay.
A short description of assay [3]: Binding affinity at poly(dA).poly(dT) dsDNA polynucleotide by competition dialysis assay.
Assay [4] is described as follows: Binding affinity at polyA ssRNA by competition dialysis assay.
A further assay relates to DNA. The experiment in a line: Binding affinity at calf thymus double stranded DNA by competition dialysis assay. The conditions noted are these: Bos taurus. Format: nucleic-acid assay.
Assay [5] can be described thus: Binding affinity at polyA.Poly U dsRNA polynucleotide by competition dialysis assay.
Another assay deals with Triticum aestivum. Description: Binding affinity at wheat germ single stranded RNA by competition assay.

For the molecule `COC(=O)C12OC(C(=O)OC)(C3C4CC(C5C(=O)N(CCNc6c7ccccc7nc7ccccc67)C(=O)C45)C31)C1C3CC(C12)C1C3C2(C(=O)OC)OC1(C(=O)OC)C1C3CC(C4C(=O)N(CCNc5c6ccccc6nc6ccccc56)C(=O)C34)C12` (stereo unspecified), the Kapp in assay [1] is 26.4 10^3/M; in the assay with Escherichia coli it was 25.7 10^3/M; in assay [2], 31.7 10^3/M; in assay [3] it was 23.7 10^3/M; in assay [4], 1.47 10^3/M; in the assay on DNA it was 30.4 10^3/M. In addition, the results for the Kapp (in assay [5]; in the assay with Triticum aestivum) were 25.5 10^3/M and 5.33 10^3/M, respectively.

Consider `FC(F)(F)C12OC(C(F)(F)F)(C3C4CC(C5CN(CCNc6c7ccccc7nc7ccccc67)CC54)C31)C1C3CC(C4CN(CCNc5c6ccccc6nc6ccccc56)CC43)C12` (stereo unspecified), for which the Kapp in assay [1] was 27.6 10^3/M; in the assay on Escherichia coli, 19.1 10^3/M; in assay [2] it was 29.5 10^3/M; in assay [3], 19.6 10^3/M; in assay [4], 1.73 10^3/M; in the assay with DNA it was 20.3 10^3/M. The Kapp (in assay [5]; in the assay on Triticum aestivum) was 0.53 10^3/M in each case.

Take `COC(=O)C12OC(C(=O)OC)(C3C4CC(C5C(=O)N(CCNc6c7ccccc7nc7ccccc67)C(=O)C45)C31)C1C3CC(C4C(=O)N(CCN5C(=O)c6cccc7cccc(c67)C5=O)C(=O)C34)C12` (stereo unspecified): the Kapp was 8.13 10^3/M in assay [1]; 14.9 10^3/M in the assay with Escherichia coli; 14.4 10^3/M in assay [2]; 3.87 10^3/M in assay [3]; 0.8 10^3/M in assay [4]; 8.13 10^3/M in the assay with DNA. The values for the Kapp (in assay [5]; in the assay with Triticum aestivum) were 0.8 10^3/M and 7.6 10^3/M, respectively.

Take `O=C1C2C3C=CC(C3)C2C(=O)N1CCNc1c2ccccc2nc2ccccc12` (stereo unspecified): the Kapp in assay [1] was 3.47 10^3/M; in the assay on Escherichia coli, 3.47 10^3/M; in assay [2], 12.1 10^3/M; in assay [3] it was 0.53 10^3/M; in assay [4], 0 10^3/M; in the assay on DNA, 6.27 10^3/M. The results for the Kapp (in assay [5]; with Triticum aestivum) were 1.47 10^3/M and 2.4 10^3/M, respectively.

Regarding `COC(=O)C12OC(C(=O)OC)(C3C4CC(C5C(=O)N(CCNC(=O)c6cccc7cc8ccccc8nc67)C(=O)C45)C31)C1C3CC(C4C(=O)N(CCNC(=O)c5cccc6cc7ccccc7nc56)C(=O)C34)C12` (stereo unspecified), the Kapp in assay [1] is 9.6 10^3/M; in the assay with Escherichia coli, 6.8 10^3/M; in assay [2], 13.9 10^3/M; in assay [3], 6.8 10^3/M; in assay [4] it was 0.53 10^3/M; in the assay with DNA, 16 10^3/M. Also, the results for the Kapp (in assay [5]; in the assay with Triticum aestivum) were 8.27 10^3/M and 0.53 10^3/M, respectively.

`COC(=O)C12OC(C(=O)OC)(C3C4CC(C5C(=O)N(CCNC(=O)c6cccc7cc8ccccc8nc67)C(=O)C45)C31)C1C3CC(C4C(=O)N(CCNc5c6ccccc6nc6ccccc56)C(=O)C34)C12` (stereo unspecified): the Kapp was 15.6 10^3/M in assay [1]; 12.9 10^3/M in the assay on Escherichia coli; 29.5 10^3/M in assay [2]; 0.8 10^3/M in assay [3]; 0.27 10^3/M in assay [4]; 23.1 10^3/M in the assay on DNA. Also, the Kapp (in assay [5]; with Triticum aestivum) was 0.27 10^3/M each time.

On to `COC(=O)C12OC(C(=O)OC)(C3C4CC(C5C(=O)N(CCNc6c7ccccc7nc7ccccc67)C(=O)C45)C31)C1C3CC(C4C(=O)N(CCNc5c6ccccc6nc6ccccc56)C(=O)C34)C12` (stereo unspecified), for which the Kapp in assay [1] is 28.4 10^3/M; in the assay on Escherichia coli, 32.8 10^3/M; in assay [2], 38.9 10^3/M; in assay [3] it was 16.4 10^3/M; in assay [4] it was 2.93 10^3/M; in the assay on DNA it was 30.4 10^3/M. Besides, the Kapp in assay [5] was 19.2 10^3/M; with Triticum aestivum it was 8.8 10^3/M.
